# Assay results taken from patent US9469642B2, “Purinone compounds as kinase inhibitors” (Pharmacyclics LLC, priority 2012, dated 2016).
# How the values were obtained:
# Assay type in all cases: biochemical
# [1] = biological target: EGFR (Homo sapiens, UniProt P00533); test: Kinase panel inhibition, EGFR (one of the methods of Example 76a, 76b, 76c)
# Method in brief: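 Kinase activity was measured by TR-FRET in 50 μL reactions in 96-well plates. Enzyme, inhibitor, ATP at its Km and a biotinylated peptide substrate were incubated for one hour at pH 7.4 in buffer containing 20 mM Tris, 50 mM NaCl, MgCl2, MnCl2, 1 mM DTT, 0.1 mM EDTA, 0.01% bovine serum albumin, 0.005% Tween-20 and 10% DMSO. Reactions were stopped with EDTA in Lance buffer. Streptavidin-APC and Eu-labeled p-Tyr100 antibody were added for one hour. The 665/615 nm emission ratio gave activity. IC50 was derived from Ki(app) fitted with BatchKi.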
# [2] = biological target: LCK (Homo sapiens, UniProt P06239); test: Kinase panel inhibition, LCK (one of the methods of Example 76a, 76b, 76c)
# Method in brief: (§1)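 BTK (0.5 nM) and LCK (6 nM) by TR-FRET, ATP at Km, biotinylated peptide, pH 7.4, 1 h; Ki(app) converted to IC50. Alternatively, full-length His6-BTK (1 nM) by mobility shift, 16 μM ATP (Km), 1 μM FAM peptide, pH 7.5, 1 h; IC50 from 12-point 4-parameter fit. Radiometric filter-binding option also used.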
# [3] = biological target: T1, BTK (Homo sapiens, UniProt Q06187); test: Btk in vitro inhibitory activity (kinase assay by one of Methods A, B or C)
# T1 construct: purified from insect cells as a full-length construct containing a N-terminal 6×-His tag; His6 (N); host or cells: insect cells (baculovirus Sf21)
# Method in brief: as §1
# EGFR, sequence (P00533 25-1210, species assumed): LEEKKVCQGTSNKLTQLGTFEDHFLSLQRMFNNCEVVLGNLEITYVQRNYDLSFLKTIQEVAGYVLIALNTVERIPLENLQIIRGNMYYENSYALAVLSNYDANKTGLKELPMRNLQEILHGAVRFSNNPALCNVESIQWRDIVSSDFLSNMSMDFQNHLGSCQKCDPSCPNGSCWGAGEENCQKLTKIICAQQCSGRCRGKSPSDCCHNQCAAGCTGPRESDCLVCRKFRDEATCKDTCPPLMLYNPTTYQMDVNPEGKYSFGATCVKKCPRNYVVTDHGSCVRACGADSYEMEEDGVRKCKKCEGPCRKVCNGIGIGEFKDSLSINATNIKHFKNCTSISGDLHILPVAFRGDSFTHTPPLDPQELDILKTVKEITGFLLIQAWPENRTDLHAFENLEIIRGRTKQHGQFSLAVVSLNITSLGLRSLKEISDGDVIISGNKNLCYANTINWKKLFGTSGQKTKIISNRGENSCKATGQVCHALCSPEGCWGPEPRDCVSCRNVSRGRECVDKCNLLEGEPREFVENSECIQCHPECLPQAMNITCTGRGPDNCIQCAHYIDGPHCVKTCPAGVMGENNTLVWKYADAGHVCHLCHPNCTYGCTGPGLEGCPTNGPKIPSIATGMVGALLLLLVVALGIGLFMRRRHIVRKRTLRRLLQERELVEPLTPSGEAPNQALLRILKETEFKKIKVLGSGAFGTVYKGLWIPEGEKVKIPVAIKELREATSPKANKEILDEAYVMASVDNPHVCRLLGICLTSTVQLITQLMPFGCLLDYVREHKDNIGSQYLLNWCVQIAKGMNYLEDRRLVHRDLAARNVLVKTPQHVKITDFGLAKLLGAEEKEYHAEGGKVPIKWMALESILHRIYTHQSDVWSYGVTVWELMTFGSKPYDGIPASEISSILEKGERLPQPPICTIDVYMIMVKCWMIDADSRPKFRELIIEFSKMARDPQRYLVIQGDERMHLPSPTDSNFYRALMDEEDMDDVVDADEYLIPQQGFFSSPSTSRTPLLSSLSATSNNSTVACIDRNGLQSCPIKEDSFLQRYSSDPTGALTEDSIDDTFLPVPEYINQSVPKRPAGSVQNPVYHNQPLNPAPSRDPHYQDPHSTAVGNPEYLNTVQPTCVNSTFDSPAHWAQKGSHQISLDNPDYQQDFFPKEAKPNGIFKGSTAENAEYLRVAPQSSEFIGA
# T1 sequence (Q06187 whole entry): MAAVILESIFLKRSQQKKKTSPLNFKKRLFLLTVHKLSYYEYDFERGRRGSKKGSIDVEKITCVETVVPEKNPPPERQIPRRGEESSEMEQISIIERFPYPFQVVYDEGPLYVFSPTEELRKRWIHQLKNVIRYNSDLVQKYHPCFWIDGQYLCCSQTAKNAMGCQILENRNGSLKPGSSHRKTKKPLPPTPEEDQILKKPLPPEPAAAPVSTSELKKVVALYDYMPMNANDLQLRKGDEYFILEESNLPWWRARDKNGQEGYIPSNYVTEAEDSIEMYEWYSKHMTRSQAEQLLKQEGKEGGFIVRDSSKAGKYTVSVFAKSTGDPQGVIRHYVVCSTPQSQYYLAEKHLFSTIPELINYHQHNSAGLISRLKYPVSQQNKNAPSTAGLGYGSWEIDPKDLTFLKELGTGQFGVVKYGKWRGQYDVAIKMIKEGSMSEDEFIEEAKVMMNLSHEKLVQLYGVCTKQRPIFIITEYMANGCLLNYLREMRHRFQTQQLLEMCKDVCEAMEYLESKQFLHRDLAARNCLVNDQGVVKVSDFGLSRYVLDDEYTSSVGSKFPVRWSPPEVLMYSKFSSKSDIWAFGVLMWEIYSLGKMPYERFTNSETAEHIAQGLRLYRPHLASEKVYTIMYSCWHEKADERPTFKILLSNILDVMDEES
# LCK, sequence (P06239 whole entry, species assumed): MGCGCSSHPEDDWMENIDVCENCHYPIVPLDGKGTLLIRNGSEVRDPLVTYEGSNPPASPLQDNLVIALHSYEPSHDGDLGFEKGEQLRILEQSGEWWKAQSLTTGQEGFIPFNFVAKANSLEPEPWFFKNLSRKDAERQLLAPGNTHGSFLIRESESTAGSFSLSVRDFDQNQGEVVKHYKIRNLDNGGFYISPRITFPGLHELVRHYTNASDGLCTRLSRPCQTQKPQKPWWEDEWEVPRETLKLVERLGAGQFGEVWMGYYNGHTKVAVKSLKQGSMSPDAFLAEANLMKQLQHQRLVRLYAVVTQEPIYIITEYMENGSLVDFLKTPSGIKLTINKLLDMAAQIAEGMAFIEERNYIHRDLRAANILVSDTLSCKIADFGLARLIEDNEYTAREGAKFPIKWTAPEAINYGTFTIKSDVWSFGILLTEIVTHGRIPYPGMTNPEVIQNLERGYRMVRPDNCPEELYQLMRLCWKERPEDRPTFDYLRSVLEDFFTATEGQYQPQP
IC50 [1],IC50 [2],IC50 [3],SMILES
1 to 10 µM,1 to 10 µM,0.1 to 1 µM,"CN(C(=O)/C=C/c1cn(C)cn1)c1cccc(-n2c(=O)n(-c3ccc(Oc4ccccc4)cc3)c3c(N)ncnc32)c1 [Compound 327, (E)-N-(3-(6-amino-8-oxo-7-(4-phenoxyphenyl)-7H-purin-9(8H)-yl)phenyl)-N-methyl-3-(1-methyl-1H-imidazol-4-yl)acrylamide]"
< 0.1 µM,< 0.1 µM,< 0.1 µM,"CN(C)C/C=C/C(=O)N(C)[C@H]1CC[C@@H](n2c(=O)n(-c3ccc(Oc4ccccc4)cc3)c3c(N)ncnc32)CC1 [Compound 328, (E)-N-((1s,4s)-4-(6-amino-8-oxo-7-(4-phenoxyphenyl)-7H-purin-9(8H)-yl)cyclohexyl)-4-(dimethylamino)-N-methylbut-2-enamide]"
< 0.1 µM,0.1 to 1 µM,< 0.1 µM,"CNC/C=C/C(=O)Nc1cccc(-n2c(=O)n(-c3ccc(Oc4ccccc4)cc3)c3c(N)ncnc32)c1 [Compound 329, (E)-N-(3-(6-amino-8-oxo-7-(4-phenoxyphenyl)-7H-purin-9(8H)-yl)phenyl)-4-(methylamino)but-2-enamide]"

# More lines, now with the values behind:
SMILES,IC50 [1],IC50 [2],IC50 [3]
"CN(C/C=C/C(=O)Nc1cccc(-n2c(=O)n(-c3ccc(Oc4ccccc4)cc3)c3c(N)ncnc32)c1)[C@H]1CCOC1 [Compound 317, (S,E)-N-(3-(6-amino-8-oxo-7-(4-phenoxyphenyl)-7H-purin-9(8H)-yl)phenyl)-4-(methyl(tetrahydrofuran-3-yl)amino)but-2-enamide]",0.1 to 1 µM,0.1 to 1 µM,< 0.1 µM
"COCCN(C)C/C=C/C(=O)Nc1cccc(-n2c(=O)n(-c3ccc(Oc4ccccc4)cc3)c3c(N)ncnc32)c1 [Compound 318, (E)-N-(3-(6-amino-8-oxo-7-(4-phenoxyphenyl)-7H-purin-9(8H)-yl)phenyl)-4-((2-methoxyethyl)(methyl)amino)but-2-enamide]",< 0.1 µM,0.1 to 1 µM,< 0.1 µM
"N#C/C(=C\C1CC1)C(=O)N1CCC[C@@H](n2c(=O)n(-c3ccc(Oc4ccccc4)cc3)c3c(N)ncnc32)C1 [Compound 324, (R,E)-2-(3-(6-amino-8-oxo-7-(4-phenoxyphenyl)-7H-purin-9(8H)-yl)piperidine-1-carbonyl)-3-cyclopropylacrylonitrile]",0.1 to 1 µM,0.1 to 1 µM,< 0.1 µM
"CN(C(=O)/C(C#N)=C/C1CC1)c1cccc(-n2c(=O)n(-c3ccc(Oc4ccccc4)cc3)c3c(N)ncnc32)c1 [Compound 325, (E)-N-(3-(6-amino-8-oxo-7-(4-phenoxyphenyl)-7H-purin-9(8H)-yl)phenyl)-2-cyano-3-cyclopropyl-N-methylacrylamide]",0.1 to 1 µM,0.1 to 1 µM,< 0.1 µM
